# Test results: patent US20100297256A1, “METHODS AND COMPOSITIONS FOR INHIBITING INTEGRINS USING TELLURIUM-CONTAINING COMPOUNDS” (priority 2007, published 2010)
# What was measured:
# HL-60 cells = experiment: AML chemotherapy resistance assay (XTT cell viability), HL-60; type: cell-based, human; conditions: HL-60
# Experimental: (§1) Cell viability was determined using a cell proliferation kit (Roche), which colors viable cells using the tetrazolium salt XTT.
# (§2) 2×10^4 per 200 μl cells were seeded in 96-microwell flat bottom plates. After 24 hours, the tested compound(s) (e.g., AS101, ARA-C, DTNB, anti-VLA-4 antibody) was added, and the cells were incubated overnight with the tested compound(s). The XTT solution was then added and the cells were incubated for 4 hours at 37° C. Cell viability was than evaluated by measuring absorbance at 450 nm using a Microplate Spectrophotometer (Spectra MAX Plus, Molecular Devices).
# Bcl2 = experiment: Western blot analysis of Bcl2; type: cell-based, human; conditions: ARA-C alone
# Text: The expression of the survival factor Bcl2 was examined via Western blot analysis in U937 cells treated with the chemotherapeutic agent ARA-C.
# [1] = tested on: leukemic cells from AML patients; experiment: Sensitization of leukemic cells from AML patients to chemotherapy; type: cell-based, human
# Experimental: as §2
# Bone marrow samples from patients diagnosed, with AML, but not yet treated, were obtained and grown in vitro. The leukemic cells obtained therefrom were tested for levels of VLA-4 and VLA-5 via fluorescence based cytometry, using FITC (fluorescein isothiocyanate)-conjugated anti-VLA-4 and anti-VLA-5 antibodies, using standard procedures. The cells were grown on both fibronectin and BSA, and the effect of AS101 on chemotherapy resistance was measured.
# U937 cells [2] = experiment: AML chemotherapy resistance assay (XTT cell viability), U937; type: cell-based, human; conditions: for resistance of cells to the agent on fibronectin-coated plates in comparison with VCAM-1- and BSA-coated plates: U937
# Experimental: as §1, §2
# The role of VLA protein in fibronectin-induced resistance to chemotherapy was investigated by performing a chemotherapy resistance assay, as described hereinabove, with anti-VLA-4 and anti-VLA-5 antibodies. U937 cells were grown in fibronectin- and BSA-coated plates. Antibodies were added at a concentration of 1 μg/ml.
# U937 cells [3] = experiment: Fluorescence-based flow cytometry analysis of cell death; parameters: species or system human; conditions: agent alone
# Text: Fluorescence-based flow cytometry was used to measure the effect of tellurium-containing compounds on chemotherapy-induced cell death. Accumulation of cells in the sub-G1 fraction, increased proportion of annexin V-positive and propidium iodide-positive cells and increased caspase activity were each used as indicators of increased cell death, using standard procedures.
# leukemic cells = experiment: Chemotherapy resistance assay with DTNB, leukemic cells; type: cell-based
# Experimental: as §2
# The role of free thiols in VLA-4/fibronectin-induced resistance to chemotherapy was therefore investigated by performing a chemotherapy resistance assay, as described hereinabove, with the membrane-impermeable thiol blocker DTNB (5 mM).
SMILES,resistance of cells to the agent on fibronectin-coated plates in comparison with VCAM-1- and BSA-coated plates (HL-60 cells),expression of Bcl2 (Bcl2; U937 on BSA),expression of Bcl2 (Bcl2; U937 on fibronectin),"viability of cells exposed to ARA-C ([1]; 4 AML patients with low VLA-4 levels, on fibronectin and BSA)","resistance of cells to ARA-C ([1]; 8 AML patients with high VLA-4 levels, on fibronectin)","viability of cells exposed to ARA-C ([1]; Patient A, low VLA-4, on fibronectin and BSA)","resistance of cells to ARA-C ([1]; Patient B, high VLA-4, on fibronectin)",resistance of cells to the agent on fibronectin-coated plates in comparison with VCAM-1- and BSA-coated plates (U937 cells [2]),percentage of annexin V-positive and propidium iodide-positive cells (U937 cells [3]; U937 on BSA),percentage of cells in the sub-G1 fraction (U937 cells [3]; U937 on BSA),percentage of annexin V-positive and propidium iodide-positive cells (U937 cells [3]; U937 on fibronectin),percentage of cells in the sub-G1 fraction (U937 cells [3]; U937 on fibronectin),percentage of cells with high caspase-3 activity (U937 cells [3]; U937 on fibronectin),"sensitization to ARA-C-induced cell death (leukemic cells; 5 mM DTNB, fibronectin-coated plates)","sensitization to ARA-C-induced cell death (leukemic cells; DTNB, BSA-coated plates)","effect on viability of cells exposed to ARA-C, alone or in combination ([1]; low VLA-4 leukemic cells, fibronectin-coated plates)","effect on viability of cells exposed to ARA-C, alone or in combination (U937 cells [2]; U937 on BSA)"
"Nc1ccn([C@@H]2O[C@H](CO)[C@@H](O)[C@@H]2O)c(=O)n1 [ARA-C, cytosine arabinoside, reference compound]",more resistant,reduced expression of Bcl2 considerably,did not decrease expression of Bcl2,decreased effectively,relatively resistant to ARA-C,decreased effectively,relatively resistant to ARA-C,more resistant,large percentage,large percentage,slight increase,slight increase,little or no effect,,,,
"O=C(O)c1cc(SSc2ccc([N+](=O)[O-])c(C(=O)O)c2)ccc1[N+](=O)[O-] [DTNB, 5,5′-dithiobis-(2-nitrobenzoic acid)]",,,,,,,,,,,,,,sensitizes leukemic cells grown in fibronectin-coated plates to ARA-C-induced cell death,no effect,no effect either alone or in combination,no effect either alone or in combination
"COc1cccc2c1C(=O)c1c(O)c3c(c(O)c1C2=O)C[C@@](O)(C(C)=O)C[C@@H]3O[C@H]1C[C@H](N)[C@H](O)[C@H](C)O1 [daunorubicin, reference compound]",more resistant,,,,,,,more resistant,,,,,,,,,
